According to US20080274149A1, “Encapsulation and Controlled Release of Biologically Active Ingredients with Enzymatically Degradable Microparticulate, Hyperbranched Polymers” (priority 2005, published 2008):

Experiment: Stability in formulation: creatine in oil-in-water emulsion stored at 45° C.
Format: physicochemical
Method: 1.5% of the microcapsules from Example 4 were stirred into an oil-in-water emulsion and stored at T=45° C.

## CN(CC(=O)O)C(=N)N [Free creatine, creatine]
0 weeks
  creatine [%]: 100%
Stored at T=45° C., 5 weeks
  creatine [%]: 40%
